Source: patent publication EP0668872B1 (priority 1992, dated 1994)
pIC50: −log10 of the molar value.

System: calcium channels
Conditions: read-out: IC50 values for blocking calcium channels; cerebellar granule cells of 8 day old rats, 6, 7 and 8 days of culture; fura2/AM fluorescence, 37°C

## COc1ccc(CCN(C)CCCC(C#N)(c2ccc(OC)c(OC)c2)C(C)C)cc1OC (stereo not shown) [Verapamil]
  pIC50: 5.32
